Laboratory results reported in patent US6814958B1, “Food compositions, compositions for oral cavity and medicinal compositions for preventing or treating periodontosis and method for preventing or treating periodontosis” (priority 1998, dated 2004).

What was measured:
HGF cells and HGK cells = conditions: of the medium with no nicotine added; 0.05% nicotine
Description: HGF cells and HGK cells were inoculated into separate 96-well plates for tissue culture in an amount of 5,000 cells/well. These HGF cells and HGK cells were incubated at 37° C. for 1 day. Then, the incubated HGF cells were diluted in a Dulbecco modification MEM culture medium containing the test substance, 0.05% nicotine and 1% fetal bovine serum, while the incubated HGK cells were diluted in a culture medium for epithelium containing the test substance, 0.05% nicotine and 1% fetal bovine serum. The cells were incubated on the media for 5 days, and the cell proliferation activities of the cells were observed. Meanwhile, as a control was used the culture medium to which only nicotine was added. After the test substances were cultivated for 5 days, the cells were fixed in a 10% formalin solution and staining in crystal violet. The absorbance of the resulting cells at 590 nm was determined to calculate the population of the cells. The relative proportion of the test substances when the value of the control (culture medium to which only nicotine was added) was 100% was obtained.

[1] = tested on: collagenase production by human gingiva fibroblasts and human gingival epithelium cells; conditions: of the medium with no nicotine added; 0.05% nicotine
Description: Measurements were carried out by the method described in Test Example 2. However, to the culture medium was added 0.05% nicotine, together with the test substance and 1% fetal bovine serum. The collagenase activity of the culture medium supernatant of the control (the culture medium containing only nicotine) was regarded as 100%, and the relative proportion of the collagenase activity when the test substances were added was determined.

[2] = molecular target: T1, gelatinase derived from HGF cells (Homo sapiens, UniProt P08253); test: Inhibitory effect on gelatinase derived from HGF cells (FITC-labelled type IV collagen); assay type: biochemical; conditions: 42° C; read-out: 50% inhibiting concentration, Gelatinase HGF (converted)
T1 construct: endogenous in cells; host or cells: human gingiva fibroblasts (HGF), serum-free conditioned medium; purified on gelatin Sepharose 4B
T1 sequence (P08253 110-660): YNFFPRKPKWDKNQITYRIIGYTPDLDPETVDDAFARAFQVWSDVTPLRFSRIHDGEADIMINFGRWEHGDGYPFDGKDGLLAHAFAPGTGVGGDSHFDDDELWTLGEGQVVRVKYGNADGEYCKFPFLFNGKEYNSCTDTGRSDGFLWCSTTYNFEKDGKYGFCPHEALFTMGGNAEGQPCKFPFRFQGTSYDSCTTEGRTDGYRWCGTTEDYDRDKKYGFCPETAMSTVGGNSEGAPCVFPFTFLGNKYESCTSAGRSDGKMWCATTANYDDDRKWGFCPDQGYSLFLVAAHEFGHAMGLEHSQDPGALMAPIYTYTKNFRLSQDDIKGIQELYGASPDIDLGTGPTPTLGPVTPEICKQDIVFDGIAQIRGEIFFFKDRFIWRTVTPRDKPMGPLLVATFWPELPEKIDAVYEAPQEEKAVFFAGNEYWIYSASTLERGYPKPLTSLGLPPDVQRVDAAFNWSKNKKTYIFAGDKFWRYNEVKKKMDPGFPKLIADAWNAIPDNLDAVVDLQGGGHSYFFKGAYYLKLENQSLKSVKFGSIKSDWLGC
Description: The measurement method was the same as the above method for measuring the inhibitory activity on the collagenase (2-1). However, the reaction temperature was set at 42° C. The measurement was also carried out on tetracycline by the same method.

[3] = molecular target: T2, collagenase derived from human gingiva fibroblasts (HGF cell) (Homo sapiens, UniProt P03956); test: Inhibitory effect on collagenase derived from HGF cells (FITC-labelled type I collagen, method of Nagai et al.); assay type: biochemical; conditions: 37° C, 4 hours; control free of test substance = 100%; read-out: 50% inhibiting concentration, Collagenase HGF (converted)
T2 construct: endogenous in cells; host or cells: human gingiva fibroblasts (HGF), serum-free conditioned medium; purified on CM Sepharose and zinc chelating Sepharose
T2 sequence (P03956 100-469): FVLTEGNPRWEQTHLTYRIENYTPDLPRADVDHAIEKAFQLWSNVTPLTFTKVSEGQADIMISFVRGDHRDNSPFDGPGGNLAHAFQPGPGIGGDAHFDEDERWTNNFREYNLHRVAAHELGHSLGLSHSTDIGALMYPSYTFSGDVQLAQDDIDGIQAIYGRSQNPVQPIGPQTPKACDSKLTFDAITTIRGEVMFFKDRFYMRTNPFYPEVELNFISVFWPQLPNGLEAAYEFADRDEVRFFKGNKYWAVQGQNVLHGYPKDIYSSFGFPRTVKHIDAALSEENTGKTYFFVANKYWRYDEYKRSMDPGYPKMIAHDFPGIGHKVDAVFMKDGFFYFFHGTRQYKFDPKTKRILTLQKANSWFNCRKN
Description: The collagenase derived from human gingiva fibroblasts (hereinafter abbreviated as “HGF cell”) for use in this test was prepared in the following manner: human procollagenase which was produced in Dulbecco modification MEM culture medium of non-blood serum using the HGF cells was refined using CM Sepharose™ (manufactured by Pharmacia Company) and zinc chelating Sepharose™ (manufactured by Pharmacia Company). The resulting substance was dissolved in a buffer solution and then was activated. The activation was carried out by incubating using aminophenyl acetic acid mercury (manufactured by Sigma Co.) as an activator at 37° C. for 4 hours.
The measurement of the inhibitory effects on collagenase of the extract containing the natural polyphenol of the above 1-1 was conducted by determining the collagenase activity of the extract. […] Specifically, 40 μl of activated human collagenase (2U/ml), 50 μg of the matrix and a test substance which was dissolved in 40 μl of an assay buffer were mixed. The mixture was allowed to react at 37° C for 4 hours. The collagenase activity of the control (free of the test substance) was regarded as 100%.

| SMILES | reduction of cell proliferation by addition of nicotine (HGF cells and HGK cells) | increase rate of collagenase production by addition of nicotine [1] | IC50 [2] | IC50 [3] |
| --- | --- | --- | --- | --- |
| CN1CCCC1c1cccnc1 (stereo not shown) [nicotine] | 52% | 380% | – | – |
| CN(C)[C@@H]1C(O)=C(C(N)=O)C(=O)[C@@]2(O)C(O)=C3C(=O)c4c(O)cccc4[C@@](C)(O)[C@H]3C[C@@H]12 [Tetracycline] | – | – | 19.6 µM | 5.63 µM |
